Measured values taken from patent publication EP0248231B1, “Pharmacologically active peptides” (Brantl, Victor, Dr. med., Dipl.-Chem., priority 1986, dated 1993).
pIC50: −log10 of the molar value. Residues, ends and D or L forms follow the SMILES beside them.

System: plexus myentericus/ Längsmuskel-Präparat des Meerschweinchenileums (GPI)
Assay: Inhibition of electrically induced contraction of the myenteric plexus/longitudinal muscle preparation of guinea pig ileum (GPI)
Format: cell-based
Conditions: means of 4-6 determinations; standard deviation below 14 %; read-out: GPI: Konzentration, die notwendig ist, die elektrisch induzierte Kontraktion des Meerschweinchen-Darm-Präparates (GPI) um 50 % zu hemmen (IC₅₀-Wert)
Source text: Die beiden Substanzen zeigen spezifische opiatartige Wirkungen am elektrisch stimulierten plexus myentericus/ Längsmuskel-Präparat des Meerschweinchenileums (GPI), Methode: Schulz und Goldstein, J. Pharmacol. Exptl. Ther. 183, 400, 1972. Die Ergebnisse sind in Tabelle 1 aufgeführt.
Tabelle 1. Opiatartige Wirkungen zweier erfindungsgemäßer Peptide; die Zahlen geben diejenige Konzentration (µM) an, die notwendig ist, die elektrisch induzierte Kontraktion des Meerschweinchen-Darm-Präparates (GPI) um 50 % zu hemmen (IC₅₀-Wert). Die Zahlen sind Mittelwerte aus 4-6 Bestimmungen; die Standardabweichung von den Mittelwerten ist kleiner als 14 %. Die Hemmungen des GPI sind mit dem spezifischen Opioid-Antagonisten Naloxon aufhebbar bzw. bei Vorbehandlung blockierbar. (Endkonzentration des Naloxons im Organbad 0,5 µM).

Molecule	pIC50
C[C@@H](O)[C@H](NC(=O)[C@H](Cc1c[nH]c2ccccc12)NC(=O)[C@@H]1CCCN1C(=O)[C@@H](N)Cc1ccc(O)cc1)C(=O)O [Tyr-Pro-Trp-Thr, H-Tyr-Pro-Trp-Thr-OH] (H-YPWT-OH)	4.34
Oc1ccc2c3c1O[C@H]1[C@@H](O)C=C[C@H]4[C@@H](C2)NCC[C@@]341 [Normorphin]	7.00
H-YPWTQ-OH [Tyr-Pro-Trp-Thr-Gln, H-Tyr-Pro-Trp-Thr-Gln-OH]	4.34
